Results published in ChEMBL document CHEMBL1240342, “Molecular modeling studies of vascular endothelial growth factor receptor tyrosine kinase inhibitors using QSAR and docking” (J Mol Graph Model, 2009).

Molecular target: Vascular endothelial growth factor receptor 2 (Homo sapiens, UniProt P35968)
Test: Inhibition of human VEGFR2 after 60 mins

Chain of Vascular endothelial growth factor receptor 2 (P35968 whole entry): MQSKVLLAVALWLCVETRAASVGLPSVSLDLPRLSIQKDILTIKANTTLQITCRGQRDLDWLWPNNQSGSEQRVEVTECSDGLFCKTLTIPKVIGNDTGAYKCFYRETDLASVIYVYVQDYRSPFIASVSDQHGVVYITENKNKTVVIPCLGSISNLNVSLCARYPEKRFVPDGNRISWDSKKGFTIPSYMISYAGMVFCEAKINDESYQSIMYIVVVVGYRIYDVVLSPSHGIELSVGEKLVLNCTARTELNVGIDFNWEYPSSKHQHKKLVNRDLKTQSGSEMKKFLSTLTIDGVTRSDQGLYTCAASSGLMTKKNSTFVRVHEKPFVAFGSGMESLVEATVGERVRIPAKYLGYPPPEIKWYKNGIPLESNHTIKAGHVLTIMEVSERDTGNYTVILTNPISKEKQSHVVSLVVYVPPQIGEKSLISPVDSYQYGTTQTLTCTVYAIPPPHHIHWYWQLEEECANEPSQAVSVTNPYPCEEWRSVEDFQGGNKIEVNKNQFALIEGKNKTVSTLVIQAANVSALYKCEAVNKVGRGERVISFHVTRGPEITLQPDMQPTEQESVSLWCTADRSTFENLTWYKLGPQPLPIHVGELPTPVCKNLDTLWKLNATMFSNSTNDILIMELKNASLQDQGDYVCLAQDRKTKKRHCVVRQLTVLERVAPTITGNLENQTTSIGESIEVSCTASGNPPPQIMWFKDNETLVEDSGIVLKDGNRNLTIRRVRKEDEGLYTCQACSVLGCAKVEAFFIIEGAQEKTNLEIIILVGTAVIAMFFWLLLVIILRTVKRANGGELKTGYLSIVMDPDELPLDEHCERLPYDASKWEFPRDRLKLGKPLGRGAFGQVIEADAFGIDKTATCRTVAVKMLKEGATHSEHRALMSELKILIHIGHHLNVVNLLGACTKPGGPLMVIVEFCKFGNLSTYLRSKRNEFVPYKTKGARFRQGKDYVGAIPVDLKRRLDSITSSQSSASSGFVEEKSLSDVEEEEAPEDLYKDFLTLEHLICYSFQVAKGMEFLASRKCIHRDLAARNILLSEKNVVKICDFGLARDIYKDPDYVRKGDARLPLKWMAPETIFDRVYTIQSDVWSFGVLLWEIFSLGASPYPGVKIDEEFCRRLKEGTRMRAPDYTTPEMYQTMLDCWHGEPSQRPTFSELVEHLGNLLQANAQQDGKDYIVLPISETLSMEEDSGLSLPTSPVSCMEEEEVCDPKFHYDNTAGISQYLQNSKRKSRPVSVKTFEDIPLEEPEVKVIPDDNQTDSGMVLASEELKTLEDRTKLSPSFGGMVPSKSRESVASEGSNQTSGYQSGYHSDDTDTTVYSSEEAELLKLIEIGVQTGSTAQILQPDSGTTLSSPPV

Row | Structure (SMILES) | IC50 [nM]
1 | COc1cc2nccc(Oc3ccc4c(C(=O)NC5CC5)cccc4c3)c2cc1C(C)=O | 0.372
2 | COc1cc2nccc(Oc3ccc4c(C(N)=O)cccc4c3)c2cc1C(C)=O | 1.2
3 | COc1cc2nccc(Oc3ccc4c(c3)OCCN4C(=O)Nc3ccc(Cl)cc3)c2cc1C(C)=O | 0.603
4 | COc1cc2nccc(Oc3ccc4c(C(=O)NC5CCC5)cccc4c3)c2cc1OC | 2.14
5 | COc1cc2nccc(Oc3ccc4c(C(=O)NCC(F)F)cccc4c3)c2cc1OC | 3.8
6 | COc1cc2nccc(Oc3ccc4c(C(=O)NC5CCCC5)cccc4c3)c2cc1OC | 12
7 | COc1cc2nccc(Oc3ccc4c(c3)OCCN4C(=O)Nc3ccc(C)cc3)c2cc1C(C)=O | 0.501
8 | COc1cc2nccc(Oc3ccc4c(C(=O)Nc5ccc(Cl)cc5)cccc4c3)c2cc1C(C)=O | 0.2
9 | COc1cc2nccc(Oc3ccc4c(C(=O)NC(C)C)cccc4c3)c2cc1OC | 5.5
10 | COCCNC(=O)c1cccc2cc(Oc3ccnc4cc(OC)c(C(C)=O)cc34)ccc12 | 21.9
